Data taken from patent US10568913B2, “Method for generating mature β-like cells” (The University of Western Australia, priority 2013, dated 2020).

Test system: Ngn3+ progenitor-containing E-cad+ cells
Assay: Insulin-producing (MIPGFP+) cell differentiation from sorted E-cad+ cells of E15.5 MIPGFP mouse pancreas
Format: cell-based
Conditions: for effect on Nic-induced differentiation: co-culture with Nic 10 mM (FIG. 1g, 5, 13, 15); for promotion of MIPGFP+ insulin-producing cell differentiation by the molecule on its own: compound alone, without Nic, day 4 (FIG. 1g, 5a)
Method: Approximately 7,500 E15.5 [at which the number of Ngn3^+ progenitors is peaked] mouse fetuses from both MIPGFP and Ngn3-GPF/RIP-DsRed lines were used for enrichment/purification of Ngn3^+ progenitors. Mouse pancreases were dissected under a stereoscope (Olympus, Tokyo, Japan). Eleven human fetal pancreases were collected from 18-22 week-fetuses (Table 1) and minced. Both mouse and human pancreases were enzymatically dissociated into single cells under aseptic conditions. […] After each incubation with antibodies, cells were washed twice with FACS buffer (0.1% bovine serum albumin in phosphate buffered saline) and finally re-suspended in this buffer containing 1 μg/ml propidium iodide (PI) or 4′,6-diamidino-2-phenylindole (DAPI) for sorting (FACSAria II, Becton Dickson Labware, Bedford). The purity of sorted cells was determined by post-sort analysis.
Sorted β-cell progenitor-enriched cells or Ngn3^+ β-cell progenitors were differentiated in 96-, 12- or 6-well plates (BD Labware). […] Growth factor-reduced Matrigel (200 μg/ml, BD Biosciences) was overlayed onto cells in the presence of various potential regulators. Thyrotropin releasing hormone (TRH, 100 nM) was purchased from Auspep (Melbourne, Australia). […] Cultures were incubated in 10% CO2 90% air at 37° C., for up to 8 days.
The number of β-like cells was directly quantified under a fluorescence microscope. To verify the accuracy of cell count, at least five randomly chosen fields per well were microphotographed under the inverse IX71 Olympus fluorescence microscope (Olympus, Tokyo, Japan) and the number of β-like cells determined with the Image Pro Plus software installed in the computer.

Molecule | effect on Nic-induced differentiation | promotion of MIPGFP+ insulin-producing cell differentiation by the molecule on its own | other results
NC(=O)c1ccc[n+]([C@@H]2O[C@H](COP(=O)([O-])O)[C@@H](O)[C@H]2O)c1 [nicotinamide mononucleotide, β-nicotinamide mononucleotide] | did not modify | – | –
NC(=O)c1ccncc1 [INic, isonicotinamide] | – | – | number of MIPGFP+ cells compared to Nic (INic 10 mM alone, days 4, 6 and 8): approximately half
C[C@H](NC(=O)Cc1cc(F)cc(F)c1)C(=O)N[C@H](C(=O)OC(C)(C)C)c1ccccc1 [DAPT] | – | did not yield | –
O=C(O)C(Cc1c[nH]c2ccccc12)N1C(=O)c2ccccc2C1=O (stereo not drawn) [RG-108, α-(1,3-dihydro-1,3-dioxo-2H-isoindo1-2-yl)-1H-indole-3-propanoic acid] | – | did not yield | –
6-chloro-2,3,4,9-tetrahydro-1H-carbazo-1-carboxamide [EX527] | did reduce Nic-induced differentiation | did not significantly promote differentiation | –
CCCC(=O)[O-].[Na+] [sodium butyrate] | significantly (p<0.05) reduced | – | –
CC(/C=C/C(=O)NO)=C\[C@@H](C)C(=O)c1ccc(N(C)C)cc1 [trichostatin A] | significantly (p<0.05) reduced | – | –
O=c1c(O)c(-c2ccc(O)c(O)c2)oc2cc(O)cc(O)c12 [quercetin] | suppressed or abolished | did not yield | –
Oc1ccc(/C=C/c2cc(O)cc(O)c2)cc1 [resveratrol, 5-[(1E)-2-(4-hydroxyphenyl)ethenyl]-1,3-benzenediol] | completely abolished | – | cellular viability (in combination with Nic): without apparently affecting cellular viability
CC(C)C[C@H](NC(=O)[C@H](Cc1ccccc1)C[C@@H](O)[C@H](Cc1ccccc1)NC(=O)OC(C)(C)C)C(=O)N[C@@H](Cc1ccccc1)C(N)=O [γ-secretase inhibitor X] | – | did not yield | –
O=C1Nc2cc(Br)ccc2/C1=C1/Nc2ccccc2/C1=N\O [BIO, (2′Z,3′E)-6-bromoindirubin-3′-oxime] | suppressed or abolished | did not yield | –
NC(=O)[C@@H]1CCCN1C(=O)[C@H](Cc1cnc[nH]1)NC(=O)[C@@H]1CCC(=O)N1 [TRH, Thyrotropin releasing hormone] | – | did not yield | –
C[C@H](NC(=O)Cc1cc(F)cc(F)c1)C(=O)N[C@H]1N=C(c2ccccc2)c2ccccc2N(C)C1=O [γ-secretase inhibitor XXI] | – | did not yield | –
CC(=O)C(=O)[O-].[Na+] [sodium pyruvate] | significantly inhibited | – | –
exendin-4 [Ex4] | – | did not yield | –
COc1cc(/C=C/C(=O)CC(=O)/C=C/c2ccc(O)c(OC)c2)ccc1O [curcumin, (E, E)-1,7-bis (4-hydroxy-3-methoxyphenyl)-1,6-heptadiene-3,5-dione] | significantly reduced | – | –
